Test results from ChEMBL document CHEMBL5291721, “A preclinical secondary pharmacology resource illuminates target-adverse drug reaction associations of marketed drugs” (Nat Commun, 2023).

How the values were obtained:
[1] = biological target: T1, Type-1 angiotensin II receptor (Homo sapiens, UniProt P30556)
T1 sequence (P30556 whole entry): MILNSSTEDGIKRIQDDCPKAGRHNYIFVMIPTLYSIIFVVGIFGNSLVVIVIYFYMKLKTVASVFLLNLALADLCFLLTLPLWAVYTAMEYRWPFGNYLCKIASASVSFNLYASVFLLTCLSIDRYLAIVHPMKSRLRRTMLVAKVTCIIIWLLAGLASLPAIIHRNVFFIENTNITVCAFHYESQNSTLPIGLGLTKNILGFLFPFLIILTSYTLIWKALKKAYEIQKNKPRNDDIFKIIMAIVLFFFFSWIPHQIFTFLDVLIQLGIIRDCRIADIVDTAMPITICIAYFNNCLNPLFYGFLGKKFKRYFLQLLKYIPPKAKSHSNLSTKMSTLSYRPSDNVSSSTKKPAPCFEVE

[2] = biological target: T2, Prostaglandin G/H synthase 1 (Rattus norvegicus, UniProt Q63921); format: functional
T2 sequence (Q63921 whole entry): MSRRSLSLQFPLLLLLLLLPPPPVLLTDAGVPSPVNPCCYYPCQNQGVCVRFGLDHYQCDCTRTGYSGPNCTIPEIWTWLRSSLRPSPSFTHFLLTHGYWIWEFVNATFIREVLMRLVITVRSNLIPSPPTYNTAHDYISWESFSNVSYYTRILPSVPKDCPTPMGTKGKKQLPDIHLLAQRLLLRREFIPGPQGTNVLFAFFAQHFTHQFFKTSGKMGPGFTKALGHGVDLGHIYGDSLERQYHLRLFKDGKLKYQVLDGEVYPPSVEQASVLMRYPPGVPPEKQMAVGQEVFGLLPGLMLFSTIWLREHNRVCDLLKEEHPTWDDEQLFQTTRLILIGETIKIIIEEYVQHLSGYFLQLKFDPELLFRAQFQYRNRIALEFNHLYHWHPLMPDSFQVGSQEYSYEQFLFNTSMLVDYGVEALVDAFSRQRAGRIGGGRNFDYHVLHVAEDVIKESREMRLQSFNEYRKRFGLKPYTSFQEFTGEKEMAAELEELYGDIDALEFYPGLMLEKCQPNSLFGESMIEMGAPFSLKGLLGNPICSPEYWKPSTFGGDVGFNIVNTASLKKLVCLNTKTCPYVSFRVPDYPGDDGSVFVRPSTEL

[3] = biological target: Beta-1 adrenergic receptor (Homo sapiens, UniProt P08588); format: functional, cell-based
[4] = biological target: Retinoic acid receptor alpha (Homo sapiens, UniProt P10276); format: functional, cell-based
[5] = biological target: T1, Type-1 angiotensin II receptor; remark: listed apart in the source
[6] = biological target: Retinoic acid receptor beta (Homo sapiens, UniProt P10826); format: functional, cell-based
[7] = biological target: T3, Retinoic acid receptor gamma (Homo sapiens, UniProt P13631); format: functional, cell-based
[8] = biological target: T3, Retinoic acid receptor gamma; format: functional, cell-based; remark: listed apart in the source
Note: assay procedure not described here.

T3 sequence (P13631 whole entry): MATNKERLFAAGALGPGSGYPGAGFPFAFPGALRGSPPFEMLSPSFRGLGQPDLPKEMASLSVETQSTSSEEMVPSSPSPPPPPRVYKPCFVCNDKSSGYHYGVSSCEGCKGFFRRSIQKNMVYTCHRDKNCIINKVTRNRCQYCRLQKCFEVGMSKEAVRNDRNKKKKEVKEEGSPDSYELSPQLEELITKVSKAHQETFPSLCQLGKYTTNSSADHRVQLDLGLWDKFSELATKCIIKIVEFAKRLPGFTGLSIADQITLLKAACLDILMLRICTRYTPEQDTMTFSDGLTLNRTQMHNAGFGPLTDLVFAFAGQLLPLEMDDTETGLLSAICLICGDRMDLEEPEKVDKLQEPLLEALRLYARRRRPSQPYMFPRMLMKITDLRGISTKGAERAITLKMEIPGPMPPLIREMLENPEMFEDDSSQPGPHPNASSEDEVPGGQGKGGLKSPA
Sequence of Retinoic acid receptor beta (P10826 whole entry): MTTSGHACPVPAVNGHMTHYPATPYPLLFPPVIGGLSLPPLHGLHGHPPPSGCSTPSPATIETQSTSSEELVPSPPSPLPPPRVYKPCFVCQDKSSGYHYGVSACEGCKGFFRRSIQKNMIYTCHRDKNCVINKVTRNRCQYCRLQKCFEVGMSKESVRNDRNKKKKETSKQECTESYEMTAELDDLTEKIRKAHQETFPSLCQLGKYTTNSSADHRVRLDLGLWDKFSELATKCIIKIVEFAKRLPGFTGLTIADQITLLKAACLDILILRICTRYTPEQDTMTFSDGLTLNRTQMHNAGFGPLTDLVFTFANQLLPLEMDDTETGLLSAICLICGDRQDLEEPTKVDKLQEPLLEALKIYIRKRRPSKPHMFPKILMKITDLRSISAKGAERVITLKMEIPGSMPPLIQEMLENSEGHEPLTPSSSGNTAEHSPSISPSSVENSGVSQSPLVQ
Sequence of Retinoic acid receptor alpha (P10276 whole entry): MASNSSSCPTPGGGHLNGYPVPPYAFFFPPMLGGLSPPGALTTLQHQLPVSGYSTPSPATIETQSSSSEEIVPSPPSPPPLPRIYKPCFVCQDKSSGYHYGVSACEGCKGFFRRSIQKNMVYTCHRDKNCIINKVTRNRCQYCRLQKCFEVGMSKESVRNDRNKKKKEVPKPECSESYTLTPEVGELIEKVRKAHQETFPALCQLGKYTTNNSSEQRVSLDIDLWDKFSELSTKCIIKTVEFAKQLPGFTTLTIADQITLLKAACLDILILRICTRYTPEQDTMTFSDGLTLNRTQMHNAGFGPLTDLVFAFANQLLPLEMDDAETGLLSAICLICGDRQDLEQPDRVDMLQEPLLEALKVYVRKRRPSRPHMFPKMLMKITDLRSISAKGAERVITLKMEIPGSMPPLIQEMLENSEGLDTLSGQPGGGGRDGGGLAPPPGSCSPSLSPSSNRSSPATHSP
Sequence of Beta-1 adrenergic receptor (P08588 whole entry): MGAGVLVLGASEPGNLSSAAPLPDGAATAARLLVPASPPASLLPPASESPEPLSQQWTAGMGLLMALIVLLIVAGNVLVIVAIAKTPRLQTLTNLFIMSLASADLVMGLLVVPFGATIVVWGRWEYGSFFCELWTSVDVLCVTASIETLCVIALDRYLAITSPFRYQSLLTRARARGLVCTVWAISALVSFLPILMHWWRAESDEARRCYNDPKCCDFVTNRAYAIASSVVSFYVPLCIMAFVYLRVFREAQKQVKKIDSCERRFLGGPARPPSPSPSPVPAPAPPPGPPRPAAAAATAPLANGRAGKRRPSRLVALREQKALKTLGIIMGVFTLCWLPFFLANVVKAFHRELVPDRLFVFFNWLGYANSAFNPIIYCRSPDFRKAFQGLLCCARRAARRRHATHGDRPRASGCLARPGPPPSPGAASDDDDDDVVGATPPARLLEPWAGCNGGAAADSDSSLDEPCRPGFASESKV

CCOc1nc2cccc(C(=O)O)c2n1Cc1ccc(-c2ccccc2-c2nnn[nH]2)cc1
AC50 [1]: 0.4 nM

CN(CCOc1ccc(CC2SC(=O)NC2=O)cc1)c1ccccn1 (stereo not drawn) [ROSIGLITAZONE]
AC50 [2]: > 30 µM

CC(C)C[C@H](NC(=O)[C@@H](O)[C@H](N)Cc1ccccc1)C(=O)O [UBENIMEX]
AC50 [3]: > 30 µM

COc1cc(C(=O)NS(=O)(=O)c2ccccc2C)ccc1Cc1cn(C)c2ccc(NC(=O)OC3CCCC3)cc12 [ZAFIRLUKAST]
AC50 [4]: > 30 µM
AC50 [5]: 50 µM
AC50 [6]: 13 µM
AC50 [7]: > 30 µM
AC50 [8]: > 30 µM
